The test system of test [1] is HIV. As to the kind of experiment: Reduction of HIV cytopathic effect, CEM-IW protocol. It counts as cell-based. Conditions: asterisk: CEMIW protocol; for EC50: CEM cells, drug added before virus, read-out: Activity of Anti-HIV Compounds (EC50), CEM-IW; for Activity class of Anti-HIV Compounds, CEM-IW: inhibition of viral cytopathic effect. On the procedure: (§1) The compounds of Examples were tested for anti-AIDS activity by subjecting them to standard National Cancer Institute ("NCI") in vitro screening procedures. In carrying out each test, two blanks were run. In the first blank, HIV and a culture of a standard human cell line were incubated together to measure the infectivity of the virus. The viability of the cells was measured after holding for six or seven days. In an "effective" test, most cells were infected before the holding period was complete.
(§2) Finally, the protective effects of the test compounds were measured. Each cell culture and test compound were incubated with the virus and the viability of the cells was measured as a function of compound concentration after holding for six or seven days. If the compound is active in protecting the cells against the virus, there is typically low cell viability until an effective concentration of the test compound is reached. At this point, cell viability increases steadily toward 100% unless the toxic effect of the compound (as measured in the second blank) takes effect. The concentration of the test compound that results in 50% "control," i.e., a 50% reduction of the viral cytopathic effect, is defined as the EC 50. The therapeutic index TI50 is calculated as IC50/EC50.
(§3) Values of test compound concentrations required for between 20 and 50% reduction of the viral cytopathic effect can also be determined. Such compounds are classified as moderately active.
(§4) The compounds were tested to determine their reduction of HIV cytopathic effect on the human cell lines CEM and MT2. Tests were done by innoculating these cell lines either with free HIV (V) or with a virus Previously cultured with host cells (C). Thus, in Table III the designation CEMV means CEM line cells innoculated with free virus and MT2C means MT2 cells innoculated with cultured viral infected MT2 cells. In some cases the compound was also tested on a cell line together with a sub-effective amount of the known HIV viricide AZT. This is done to test possible synergistic effects. Such a test on the CEM line is denoted CEMZ.
The aforementioned identifiers are used when a batch was prepared and samples inserted into the wells. In procedures calling for the addition of the drug (or no drug) and the CEM uninfected cells to each well, followed by the subsequent addition of the HIV virus, the protocol is designated as CEM-IW.
(§5) 4) The tetrazolium salt, XTT, is added to all wells, and cultures are incubated to allow formazan color development by viable cells.
(§6) 5) Individual wells are analyzed spectrophotometrically to quantity formazan production, and in addition are viewed microscopically for detection of viable cells and confirmation of protective activity.
(§7) 6) Drug-treated virus-infected cells are compared with drug-treated non-infected cells and with other appropriate controls (untreated infected and untreated non-infected cells, drug-containing wells without cells, etc.) on the same plate.
Asterisks indicate the CEMIW protocol.

Test [2] deals with HIV. As to the kind of experiment: microbe, parasite or virus in culture. It counts as cell-based. The note with it: CEM cells, free HIV, read-out: Activity of Anti-HIV Compounds (EC50), CEMV. As for the experimental part: as §1
In the second blank, the cell line culture and the compound being tested (but not virus) were incubated together to measure the toxicity of the drug to the cellline. The viability of the cells was measured as a function of concentration of the compound, after holding for seven days. Typically, the cells survive at low compound concentrations, but at some higher concentration, toxicity of the compound is manifested and the cells die. The concentration of the test compound that results in 50% inhibition of cell growth is defined as the IC50.
as §2, §3, §4
1) T4 lymphocytes (CEM cell line) are exposed to HIV at a virus to cell ratio of approximately 0.05 and plated along with non-infected control cells in 96-well microtiter plates.
2) Each candidate agent is dissolved in dimethyl sulfoxide (unless otherwise indicated), then diluted 1:200 in cell culture medium. Further dilutions (five-fold) are prepared before adding to an equal volume of medium containing either infected or noninfected cells.
3) Cultures are incubated at 37° C. in a 5% carbon dioxide atmosphere for seven days (if six days the CEMV test is identified as CEM-6).
as §5, §6, §7
7) A determination of activity is made. […]

[3] abbreviates: Human immunodeficiency virus 1, CCRF-CEM.

“And” between values parts separate entries of the source, which are not always exact repeats. Equal entries are not always repeated.

What is called EC50 is the concentration giving half of the maximal effect. Take `CCCOC(=S)Nc1ccc(Cl)c(C(=O)OC(C)C)c1` [Compound 35]: the EC50 in the test with HIV [1] (setting [3]) was 240 nM; in the test with HIV [1] it was 180 nM and 200 nM. With `CC(C)OC(=O)c1cc(NC(=O)C(C)(C)C)c(F)cc1Cl` [Compound 30, 1-Methylethyl 2-chloro-5-[(2,2-dimethyl-1-oxopropyl)amino]-4-fluorobenzoate], in the test with HIV [2] (setting [3]), the EC50 amounted to 42700 nM. On to `CCOC(=O)c1cc(NC(=S)OC(C)C)ccc1SC` [Compound 145], for which the EC50 was 260 nM in the test on HIV [1] (setting [3]); 373 nM and 243 nM and 422 nM in the test on HIV [1]. In the case of `CC1=C(C(=O)Nc2cc(C(=O)OC(C)C)ccc2F)SCCO1` [Compound 13, 1-Methylethyl 3-[[(5,6-dihydro-2-methyl-1,4-oxathiin-3-yl)carbonyl]amino]-4-fluorobenzoate], the values for the 50% effective concentration (EC50) in the test with HIV [2] and with HIV [2] (setting [3]) were 13200 nM and 15200 nM, respectively. As for `CCOC(=S)Nc1ccc(Cl)c(C(=O)OC(C)C)c1` [Compound 33], the EC50 is 660 nM with HIV [1] (setting [3]); 680 nM and 730 nM in the test on HIV [1]. As to `CCCSC(=Nc1ccc(Cl)c(C(=O)OC(C)C)c1)OC(C)C` [Compound 52], the EC50 was 2440 nM with HIV [1] (setting [3]); 2470 nM and 1940 nM in the test on HIV [1]. In the case of `COc1ccccc1C(=O)Nc1ccc(Cl)c(C(=O)OCC2CCCO2)c1` (centres unmarked) [Compound 83, Tetrahydro-2-furanylmethyl 2-chloro-5-[(2-methoxybenzoyl)-amino]benzoate], the “Activity class of Anti-HIV Compounds, CEM-IW” value (shortened to “Activity class”) with HIV [1] was “MA (moderate activity (MA), that is, inhibition between approximately 20 and 50%)”.

On to `CC1=C(C(=O)Nc2cccc(C(=O)OC(C)C)c2)SCCO1` [Compound 10, 1-Methylethyl 3-[[(5,6-dihydro-2-methyl-1,4-oxathiin-3-yl)carbonyl]amino]benzoate], for which the EC50 with HIV [2] came out at 2900 nM; in the test on HIV [2] (setting [3]), 3000 nM. Turning to `CCCCOC(=O)c1cc(NC(=O)C2=C(C)OCCS2)ccc1Cl` [Compound 6, Butyl 2-chloro-5-[[(5,6-dihydro-2-methyl-1,4-oxathiin-3-yl)carbonyl]amino]benzoate], the EC50 with HIV [2] (setting [3]) stood at 100 nM. For the compound `CCC(C)OC(=O)c1cc(NC(=S)OC(C)C)ccc1Cl` (centres unmarked) [Compound 152], the EC50 in the test with HIV [1] (setting [3]) is 71.7 nM; with HIV [1], 41.7 nM and 36.8 nM and 57.1 nM.

Regarding `CCCOC(=O)c1cc(NC(=S)OC(C)C)ccc1Cl` [Compound 154], the EC50 in the test on HIV [1] (setting [3]) amounted to 44.3 nM. Regarding `CC(C)OC(=O)c1cc(NC(=S)OC2C=CCCC2)ccc1Cl` (centres unmarked) [Compound 39], the EC50 in the test on HIV [1] (setting [3]) is 1090 nM; with HIV [1], 1470 nM and 1750 nM and 1460 nM. As for `CCC(=O)Oc1ccc(NC(=O)C2=C(C)OCCS2)cc1C(=O)OC(C)C` [Compound 158], the EC50 in the test on HIV [1] (setting [3]) was 6100 nM; in the test on HIV [1], 6770 nM and 4490 nM and 3620 nM. For `CCCCCOC(=S)Nc1ccc(Cl)c(C(=O)OC(C)C)c1` [Compound 36], the EC50 in the test on HIV [1] (setting [3]) is 1040 nM; in the test with HIV [1], 1380 nM and 1320 nM and 890 nM. As to `CC1=C(C(=O)Nc2ccccc2C(=O)Nc2ccc(Cl)c(C(=O)OC(C)C)c2)SCCO1` [Compound 147], the 50% effective concentration (EC50) came out at 590 nM in the test on HIV [1] (setting [3]) and 608 nM in the test with HIV [1].

For the compound `CC(C)OC(=O)c1cc(NC(=NS(=O)(=O)c2ccccc2)c2ccccc2F)ccc1Cl` [Compound 131], the “Activity class” value with HIV [1] was “MA (moderate activity (MA), that is, inhibition between approximately 20 and 50%)”. Same read-out and setting: as for `CC(C)OC(=O)c1cc(NC(=S)OCC2CCCO2)ccc1Cl` (centres unmarked) [Compound 43], the entry is “MA (moderate activity (MA), that is, inhibition between approximately 20 and 50%)”; as for `CC(=O)Oc1ccc(NC(=O)C2=C(C)OCCS2)cc1C(=O)OC(C)C` [Compound 157], “MA (moderate activity (MA), that is, inhibition between approximately 20 and 50%)”. On to `CCC1=C(C(=O)Nc2ccc(Cl)c(C(=O)OC(C)C)c2)SCCO1` [Compound 7, 1-Methylethyl 2-chloro-5-[[(2-ethyl-5,6-dihydro-1,4-oxathiin-3-yl)carbonyl]amino]benzoate], for which the EC50 in the test on HIV [2] was found to be 700 nM; in the test with HIV [2] (setting [3]), 840 nM.

Turning to `CCC(CC)OC(=O)c1cc(NC(=S)OC(C)C)ccc1Cl` [Compound 151], the EC50 with HIV [1] (setting [3]) was 95.4 nM; in the test on HIV [1], 84.2 nM and 77.7 nM and 53.7 nM. As for `COC(=O)c1ccccc1S(=O)(=O)NC(=O)Nc1ccc(Cl)c(C(=O)OC(C)C)c1` [Compound 130], the “Activity class” value in the test on HIV [1] is “MA (moderate activity (MA), that is, inhibition between approximately 20 and 50%)”.

On to `CC(C)OC(=O)c1cc(NC(=S)c2ccccc2)ccc1Cl` [Compound 61, Benzoic acid, 2-chloro-5-(phenylthioxomethyl) amino-, 1-methylethyl ester], for which the EC50 in the test with HIV [1] (setting [3]) is 390 nM; with HIV [1], 620 nM and 420 nM and 450 nM. Regarding `COc1ccccc1C(=S)Nc1ccc(Cl)c(C(=O)OC(C)C)c1` [Compound 65], the EC50 in the test on HIV [1] (setting [3]) was 476 nM; with HIV [1], 404 nM and 588 nM and 509 nM. Take `CCOC(=O)c1cc(NC(=S)OC(C)C)ccc1Cl` [Compound 148]: the “Activity class” value in the test on HIV [1] is “MA (moderate activity (MA), that is, inhibition between approximately 20 and 50%)”. Regarding `Cc1oc(C)c(C(=S)Nc2ccc(Cl)c(C(=O)OC(C)C)c2)c1C` [Compound 58, 1-Methylethyl 2-chloro-5-[(2,4,5-trimethyl 3-furanyl)thioxomethyl]amino1benzoate], the EC50 with HIV [1] (setting [3]) is 870 nM; in the test with HIV [1] it was 750 nM and 1060 nM and 900 nM. In the case of `CC1=C(C(=O)Nc2ccc(O)c(C(=O)OC(C)C)c2)SCCO1` [Compound 112, 1-Methylethyl 5-[[(5,6-dihydro-2-methyl-1,4-oxathiin-3-yl)-carbonyl]amino]-2-hydroxybenzoate], the “Activity class” value in the test on HIV [1] was “MA (moderate activity (MA), that is, inhibition between approximately 20 and 50%)”. Turning to `Cc1occc1C(=S)Nc1ccc(Cl)c(C(=O)OC(C)C)c1` [Compound 59, 1-methylethyl 2-chloro-5-[(2-methyl-3-furanyl)thioxomethyl]amino benzoate], the EC50 in the test with HIV [1] (setting [3]) is 43 nM; with HIV [1] it was 37 nM.

For `CCOC(=O)c1cc(NC(=S)OC(C)C)ccc1C` [Compound 150], the 50% effective concentration (EC50) was 210 nM in the test with HIV [1] (setting [3]); 230 nM and 296 nM and 329 nM in the test with HIV [1]. Take `COc1ccccc1NC(=O)Nc1ccc(Cl)c(C(=O)OC(C)C)c1` [Compound 99]: the “Activity class” value in the test on HIV [1] was “MA (moderate activity (MA), that is, inhibition between approximately 20 and 50%)”. Take `CC(C)OC(=O)c1cc(NC(=S)OCc2ccccc2)ccc1Cl` [Compound 117]: in the test with HIV [1], the “Activity class” value is “MA (moderate activity (MA), that is, inhibition between approximately 20 and 50%)”. Turning to `CC(C)OC(=O)c1cc(NC(=O)c2ccccc2I)ccc1Cl` [Compound 82, 1-Methylethyl 2-chloro-5-[(2-iodobenzoyl)amino]benzoate], the EC50 in the test with HIV [1] (setting [3]) is 2670 nM; in the test on HIV [1], 2560 nM and 2150 nM and 2880 nM.

Consider `CC(C)OC(=O)c1cc(NC(=O)OC2CCCCC2)ccc1Cl` [Compound 102], for which, in the test with HIV [1], the “Activity class” value is “MA (moderate activity (MA), that is, inhibition between approximately 20 and 50%)”.

As for `CCCCOC(=O)c1cc(NC(=S)OC(C)C)ccc1Cl` [Compound 153], the EC50 with HIV [1] (setting [3]) is 71.9 nM; in the test with HIV [1], 42.6 nM and 53 nM. On to `CC(=O)Nc1ccccc1C(=O)Nc1ccc(Cl)c(C(=O)OC(C)C)c1` [Compound 114, 1-Methylethyl 5-[(2-acetamidobenzoyl)amino]-2-chlorobenzoate], for which the “Activity class” value in the test with HIV [1] is “MA (moderate activity (MA), that is, inhibition between approximately 20 and 50%)”. For `C=CCOC(=S)Nc1ccc(Cl)c(C(=O)OC(C)C)c1` [Compound 37], the figures for the EC50 in the test on HIV [1] (setting [3]) and in the test with HIV [1] were 320 nM and 200 nM, respectively.
